Test results reported in PubChem BioAssay AID330 (DTP/NCI, 2004).
“And” between values parts separate entries of the source, which are not always exact repeats. Equal entries are not always repeated. Toxic doses and inconclusive results are not listed. The calls were made as follows: active = survival T/C of 150% or more; inactive = T/C below 125% in these data.

Tested on: P388 leukemia ip, CD2F1 mice, survival T/C
Assay: NCI In Vivo Anticancer Drug Screen. Data for tumor model P388 Leukemia (intraperitoneal) in CD2F1 (CDF1) mice
Conditions: endpoint: median survival time, higher = longer survival
In short: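 Mice carrying the transplanted tumor received test compound or vehicle. Survival was recorded in each group, and the value is the treated-group measurement divided by that of the vehicle-treated control group.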

Measured: T/C

OCC1CCCN1 (stereo not given)
inactive: dose: 100.0 mg/kg/injection, schedule: Q04DX002 (ip), vehicle: saline 102 % of control | dose: 200.0 mg/kg/injection, schedule: Q04DX002 (ip), vehicle: saline 96 % of control

COC(=S)C(=S)OC
inactive: dose: 12.5 mg/kg/injection, schedule: Q01DX009 (ip), vehicle: saline with Tween-80 108 % of control | dose: 25.0 mg/kg/injection, schedule: Q01DX009 (ip), vehicle: saline with Tween-80 108 % of control

C=CC(C)(C)C12CC3C(=O)Nc4ccccc4C(=O)N3C1Nc1ccccc12 (stereo not given)
inactive: dose: 25.0 mg/kg/injection, schedule: Q01DX005 (ip), vehicle: distilled water + Tween-80 + alcohol 95 % of control | dose: 50.0 mg/kg/injection, schedule: Q01DX005 (ip), vehicle: distilled water + Tween-80 + alcohol 97 % of control | dose: 100.0 mg/kg/injection, schedule: Q01DX005 (ip), vehicle: distilled water + Tween-80 + alcohol 103 % of control | dose: 200.0 mg/kg/injection, schedule: Q01DX005 (ip), vehicle: distilled water + Tween-80 + alcohol 98 % of control

CC(=O)Nc1ccccc1/C=C/c1ccccn1
inactive: dose: 100.0 mg/kg/injection, schedule: Q01DX001 (ip), vehicle: saline with Tween-80 106 % of control | dose: 200.0 mg/kg/injection, schedule: Q01DX001 (ip), vehicle: saline with Tween-80 106 % of control | dose: 400.0 mg/kg/injection, schedule: Q01DX001 (ip), vehicle: saline with Tween-80 95 % of control

NC1(C(=O)O)CCc2ccccc2C1 (stereo not given)
inactive: dose: 50.0 mg/kg/injection, schedule: Q01DX005 (ip), vehicle: Klucel (hydroxypropylcellulose) (HPC) 104 % of control | dose: 100.0 mg/kg/injection, schedule: Q01DX005 (ip), vehicle: Klucel (hydroxypropylcellulose) (HPC) 102 % of control | dose: 200.0 mg/kg/injection, schedule: Q01DX005 (ip), vehicle: Klucel (hydroxypropylcellulose) (HPC) 100 % of control

CN(C)CCCNC(=O)c1n[nH]c(=S)[nH]c1=O
inactive: dose: 50.0 mg/kg/injection, schedule: Q01DX005 (ip), vehicle: saline with Tween-80 101 % of control | dose: 100.0 mg/kg/injection, schedule: Q01DX005 (ip), vehicle: saline with Tween-80 100 % of control | dose: 200.0 mg/kg/injection, schedule: Q01DX005 (ip), vehicle: saline with Tween-80 95 % of control

Cc1ccc(C(=O)CC(O)(C(F)(F)F)C(F)(F)F)cc1
inactive: dose: 100.0 mg/kg/injection, schedule: Q04DX003 (ip), vehicle: other 100 % of control | dose: 200.0 mg/kg/injection, schedule: Q04DX003 (ip), vehicle: other 118 % of control | dose: 400.0 mg/kg/injection, schedule: Q04DX003 (ip), vehicle: other 122 % of control

COc1nc(N)c2cnn(C3CCCCO3)c2n1 (stereo not given)
inactive: dose: 100.0 mg/kg/injection, schedule: Q04DX002 (ip), vehicle: saline with Tween-80 99 % of control | dose: 200.0 mg/kg/injection, schedule: Q04DX002 (ip), vehicle: saline with Tween-80 96 % of control | dose: 400.0 mg/kg/injection, schedule: Q04DX002 (ip), vehicle: saline with Tween-80 101 % of control

Nc1nc2c(C(=O)c3ccco3)nnn2c2cccc(Cl)c12
inactive: dose: 60.0 mg/kg/injection, schedule: Q01DX005 (ip), vehicle: saline with Tween-80 100 % of control | dose: 120.0 mg/kg/injection, schedule: Q01DX005 (ip), vehicle: saline with Tween-80 104 % of control | dose: 240.0 mg/kg/injection, schedule: Q01DX005 (ip), vehicle: saline with Tween-80 104 % of control

COC1=C(C)C2CC(=O)OC3CC4C(C)CC(O)C(=O)C4(C)C(C1=O)C32C (stereo not given)
inactive: dose: 0.5 mg/kg/injection, schedule: Q01DX009 (ip), vehicle: saline + alcohol 108 % of control | dose: 1.0 mg/kg/injection, schedule: Q01DX009 (ip), vehicle: saline + alcohol 106 % of control | dose: 2.0 mg/kg/injection, schedule: Q01DX009 (ip), vehicle: saline + alcohol 106 % of control | dose: 4.0 mg/kg/injection, schedule: Q01DX009 (ip), vehicle: saline + alcohol 104 % of control | dose: 8.0 mg/kg/injection, schedule: Q01DX009 (ip), vehicle: saline + alcohol 107 % of control

NC(=S)c1ccc(N=Cc2ccccn2)cc1
inactive: dose: 25.0 mg/kg/injection, schedule: Q01DX001 (ip), vehicle: Klucel (hydroxypropylcellulose) (HPC) 100 % of control | dose: 50.0 mg/kg/injection, schedule: Q01DX001 (ip), vehicle: Klucel (hydroxypropylcellulose) (HPC) 100 % of control | dose: 100.0 mg/kg/injection, schedule: Q01DX001 (ip), vehicle: Klucel (hydroxypropylcellulose) (HPC) 103 % of control and 106 % of control | dose: 200.0 mg/kg/injection, schedule: Q01DX001 (ip), vehicle: Klucel (hydroxypropylcellulose) (HPC) 102 % of control | dose: 400.0 mg/kg/injection, schedule: Q01DX001 (ip), vehicle: Klucel (hydroxypropylcellulose) (HPC) 105 % of control

C=C1C(=O)O[C@@H]2[C@H]3C(C)=CC[C@@H](OC(=O)/C(C)=C/C)[C@]3(C)[C@H](O)C[C@@H]12
inactive: dose: 7.0 mg/kg/injection, schedule: Q01DX005 (ip), vehicle: Klucel (hydroxypropylcellulose) (HPC) 100 % of control | dose: 14.0 mg/kg/injection, schedule: Q01DX005 (ip), vehicle: Klucel (hydroxypropylcellulose) (HPC) 100 % of control | dose: 28.0 mg/kg/injection, schedule: Q01DX005 (ip), vehicle: Klucel (hydroxypropylcellulose) (HPC) 106 % of control | dose: 56.0 mg/kg/injection, schedule: Q01DX005 (ip), vehicle: Klucel (hydroxypropylcellulose) (HPC) 105 % of control
